# Test results as given in US8198330B2, “Therapeutic or prophylactic agent for diabetes, obesity, dyslipidemia or metabolic syndrome comprising benzylamine derivative or pharmaceutically acceptable acid addition salt thereof” (Toray Industries, Inc., priority 2008, dated 2012).
# Columns and labels:
# anesthetized dog = assay: Effect on electrocardiogram of anesthetized dog; assay type: in vivo; conditions: for QTc: Fridericia
# Protocol: A male beagle and a female beagle of 11 months of age were used in the test. A beagle was anesthetized by intravenous administration of thiopental sodium at 25 mg/kg, and fixed at the dorsal position under anesthesia by isoflurane inhalation with oxygen-nitrous oxide gas (1:1). Artificial respiration was carried out under the condition of 20 mL/kg and 15 times/minute. In measurement of the electrocardiogram, bipolar extremity leads (I, II and III) and augmented unipolar extremity leads (aVR, aVL and aVF) were recorded and QT interval determined by using an electrocardiogram analyzer for animals (α6000AX-D, Fukuda M-E Kogyo Co., Ltd.), as needle electrodes were placed on four extremities.
# The QTc value was calculated according to the Fridericia's formula: QTc=QT/^3√{square root over ( )}(R−R). For observation of arrhythmia in electrocardiographic waveform during test, compression electrocardiogram was printed out from the small memory card by using a long-term electrocardiogram analyzer (HS1000 system, Fukuda M-E Kogyo Co., Ltd.). The samples of the compound of Example 1 were prepared by dissolving the compound in physiological saline at concentrations of 12 mg/mL, 4 mg/mL and 1.2 mg/mL. After confirmation of stabilization of the electrocardiogram, the sample was administered through a needle (22G) previously placed in the side forearm subcutaneous vein, by using an automatic injector (Harvard digital infusion pump MODEL-22, HARVARD […]) over a period of 10 minutes.
# First, vehicle (physiological saline) was administered in an amount of 0.5 mL/kg and then, after 35 minutes, 1.2 mg/mL physiological saline solution of the compound of Example 1 was administered in an amount of 0.5 mL/kg. Additionally, 4 mg/mL or 12 mg/mL physiological saline solution of the compound of Example 1 was administered in an amount of 0.5 mL/kg at an interval of 65 minutes after administration. The QT interval and the QTc value were measured, in each administration above, 5 minutes before administration, immediately before start of administration, as well as 5, 10, 15 and 30 minutes after start of administration. Thus, the measured value 30 or 60 minutes after start of previous administration corresponds to the value 5 minutes before start of administration for the following application.
# KK/Ay mice = assay: Efficacy in Type 2 diabetes-model mice (KK/Ay mice); assay type: in vivo, mouse
# Protocol: KK/Ay male mice of 5 weeks of age (CLEA Japan, Inc.) were purchased; a feeding stuff for growth CMF (Oriental Yeast) was provided since the day of arrival; and mice after growth for 3 weeks or longer were used. The compound of Example 1 was diluted to 2 mg/mL, as it is dissolved in physiological saline, and the solution was administered subcutaneously in an amount of 5 mL/kg, by using a disposable syringe (Terumo) and a 26G injection needle (Terumo). Physiological saline was administered to the mice in the vehicle group. The solution was administered once a day from the day of first administration (day 0) to day 13, and the tail vein was cut open with a knife (disposable scalpel, FEATHER) and the blood sugar was determined with a simplified blood sugar analyzer (MediSense Precision Xceed, Abotto Japan). Statistical treatment of the individual data obtained was carried out by a two-group test (unpaired t-test).
# [1] = Individual 1 (male), 0.6 mg/kg/10 min i.v., 0 min (immediately before start of administration)
# [2] = Individual 1 (male), 0.6 mg/kg/10 min i.v., 5 min after start of administration
# [3] = Individual 1 (male), 0.6 mg/kg/10 min i.v., 10 min after start of administration
# [4] = Individual 1 (male), 0.6 mg/kg/10 min i.v., 15 min after start of administration
# [5] = Individual 1 (male), 0.6 mg/kg/10 min i.v., 30 min after start of administration
# [6] = Individual 1 (male), 0.6 mg/kg/10 min i.v., 45 min after start of administration
# [7] = Individual 1 (male), 0.6 mg/kg/10 min i.v., 60 min after start of administration
# [8] = Individual 1 (male), 2 mg/kg/10 min i.v., 0 min (immediately before start of administration)
# [9] = Individual 1 (male), 2 mg/kg/10 min i.v., 5 min after start of administration
# [10] = Individual 1 (male), 2 mg/kg/10 min i.v., 10 min after start of administration
# [11] = Individual 1 (male), 2 mg/kg/10 min i.v., 15 min after start of administration
# [12] = Individual 1 (male), 2 mg/kg/10 min i.v., 30 min after start of administration
# [13] = Individual 1 (male), 2 mg/kg/10 min i.v., 45 min after start of administration
# [14] = Individual 1 (male), 2 mg/kg/10 min i.v., 60 min after start of administration
# [15] = Individual 1 (male), 6 mg/kg/10 min i.v., 0 min (immediately before start of administration)
# [16] = Individual 1 (male), 6 mg/kg/10 min i.v., 5 min after start of administration
# [17] = Individual 1 (male), 6 mg/kg/10 min i.v., 10 min after start of administration
# [18] = Individual 1 (male), 6 mg/kg/10 min i.v., 15 min after start of administration
# [19] = Individual 1 (male), 6 mg/kg/10 min i.v., 30 min after start of administration
# [20] = Individual 1 (male), 6 mg/kg/10 min i.v., 45 min after start of administration
# [21] = Individual 1 (male), 6 mg/kg/10 min i.v., 60 min after start of administration
# [22] = Individual 2 (female), 0.6 mg/kg/10 min i.v., 0 min (immediately before start of administration)
# [23] = Individual 2 (female), 0.6 mg/kg/10 min i.v., 5 min after start of administration
# [24] = Individual 2 (female), 0.6 mg/kg/10 min i.v., 10 min after start of administration
# [25] = Individual 2 (female), 0.6 mg/kg/10 min i.v., 15 min after start of administration
# [26] = Individual 2 (female), 0.6 mg/kg/10 min i.v., 30 min after start of administration
# [27] = Individual 2 (female), 0.6 mg/kg/10 min i.v., 45 min after start of administration
# [28] = Individual 2 (female), 0.6 mg/kg/10 min i.v., 60 min after start of administration
# [29] = Individual 2 (female), 2 mg/kg/10 min i.v., 0 min (immediately before start of administration)
# [30] = Individual 2 (female), 2 mg/kg/10 min i.v., 5 min after start of administration
# [31] = Individual 2 (female), 2 mg/kg/10 min i.v., 10 min after start of administration
# [32] = Individual 2 (female), 2 mg/kg/10 min i.v., 15 min after start of administration
# [33] = Individual 2 (female), 2 mg/kg/10 min i.v., 30 min after start of administration
# [34] = Individual 2 (female), 2 mg/kg/10 min i.v., 45 min after start of administration
# [35] = Individual 2 (female), 2 mg/kg/10 min i.v., 60 min after start of administration
# [36] = Individual 2 (female), 6 mg/kg/10 min i.v., 0 min (immediately before start of administration)
# [37] = Individual 2 (female), 6 mg/kg/10 min i.v., 5 min after start of administration
# [38] = Individual 2 (female), 6 mg/kg/10 min i.v., 10 min after start of administration
# [39] = Individual 2 (female), 6 mg/kg/10 min i.v., 15 min after start of administration
# [40] = Individual 2 (female), 6 mg/kg/10 min i.v., 30 min after start of administration
# [41] = Individual 2 (female), 6 mg/kg/10 min i.v., 45 min after start of administration
# [42] = Individual 2 (female), 6 mg/kg/10 min i.v., 60 min after start of administration
# [43] = anesthetized beagle, i.v. 0.6, 2 and 6 mg/kg/10 min
smiles,measurement,setting,value
"COc1cc(CN[C@@H](C)[C@H](O)c2ccc(O)c(NS(C)(=O)=O)c2)cc(OC)c1 [Example 1, N-(5-((1R,2S)-2-(3,5-Dimethoxybenzylamino)-1-hydroxypropyl)-2-hydroxyphenyl)methanesulfonamide]",QT interval,anesthetized dog; [1],241 ms
same,QTc,anesthetized dog; [1],303 ms
same,QT interval,anesthetized dog; [2],228 ms
same,QTc,anesthetized dog; [2],299 ms
same,QT interval,anesthetized dog; [3],210 ms
same,QTc,anesthetized dog; [3],287 ms
same,QT interval,anesthetized dog; [4],205 ms
same,QTc,anesthetized dog; [4],280 ms
same,QT interval,anesthetized dog; [5],213 ms
same,QTc,anesthetized dog; [5],290 ms
same,QT interval,anesthetized dog; [6],220 ms
same,QTc,anesthetized dog; [6],296 ms
same,QT interval,anesthetized dog; [7],221 ms
same,QTc,anesthetized dog; [7],294 ms
same,QT interval,anesthetized dog; [8],218 ms
same,QTc,anesthetized dog; [8],293 ms
same,QT interval,anesthetized dog; [9],203 ms
same,QTc,anesthetized dog; [9],283 ms
same,QT interval,anesthetized dog; [10],203 ms
same,QTc,anesthetized dog; [10],283 ms
same,QT interval,anesthetized dog; [11],213 ms
same,QTc,anesthetized dog; [11],294 ms
same,QT interval,anesthetized dog; [12],218 ms
same,QTc,anesthetized dog; [12],297 ms
same,QT interval,anesthetized dog; [13],221 ms
same,QTc,anesthetized dog; [13],299 ms
same,QT interval,anesthetized dog; [14],225 ms
same,QTc,anesthetized dog; [14],304 ms
same,QT interval,anesthetized dog; [15],220 ms
same,QTc,anesthetized dog; [15],296 ms
same,QT interval,anesthetized dog; [16],210 ms
same,QTc,anesthetized dog; [16],292 ms
same,QT interval,anesthetized dog; [17],211 ms
same,QTc,anesthetized dog; [17],294 ms
same,QT interval,anesthetized dog; [18],210 ms
same,QTc,anesthetized dog; [18],291 ms
same,QT interval,anesthetized dog; [19],211 ms
same,QTc,anesthetized dog; [19],291 ms
same,QT interval,anesthetized dog; [20],235 ms
same,QTc,anesthetized dog; [20],320 ms
same,QT interval,anesthetized dog; [21],226 ms
same,QTc,anesthetized dog; [21],305 ms
same,QT interval,anesthetized dog; [22],240 ms
same,QTc,anesthetized dog; [22],293 ms
same,QT interval,anesthetized dog; [23],243 ms
same,QTc,anesthetized dog; [23],315 ms
same,QT interval,anesthetized dog; [24],236 ms
same,QTc,anesthetized dog; [24],310 ms
same,QT interval,anesthetized dog; [25],223 ms
same,QTc,anesthetized dog; [25],296 ms
same,QT interval,anesthetized dog; [26],218 ms
same,QTc,anesthetized dog; [26],297 ms
same,QT interval,anesthetized dog; [27],211 ms
same,QTc,anesthetized dog; [27],288 ms
same,QT interval,anesthetized dog; [28],213 ms
same,QTc,anesthetized dog; [28],292 ms
same,QT interval,anesthetized dog; [29],215 ms
same,QTc,anesthetized dog; [29],293 ms
same,QT interval,anesthetized dog; [30],210 ms
same,QTc,anesthetized dog; [30],292 ms
same,QT interval,anesthetized dog; [31],210 ms
same,QTc,anesthetized dog; [31],289 ms
same,QT interval,anesthetized dog; [32],210 ms
same,QTc,anesthetized dog; [32],288 ms
same,QT interval,anesthetized dog; [33],225 ms
same,QTc,anesthetized dog; [33],303 ms
same,QT interval,anesthetized dog; [34],220 ms
same,QTc,anesthetized dog; [34],298 ms
same,QT interval,anesthetized dog; [35],221 ms
same,QTc,anesthetized dog; [35],299 ms
same,QT interval,anesthetized dog; [36],220 ms
same,QTc,anesthetized dog; [36],296 ms
same,QT interval,anesthetized dog; [37],215 ms
same,QTc,anesthetized dog; [37],293 ms
same,QT interval,anesthetized dog; [38],211 ms
same,QTc,anesthetized dog; [38],289 ms
same,QT interval,anesthetized dog; [39],215 ms
same,QTc,anesthetized dog; [39],292 ms
same,QT interval,anesthetized dog; [40],213 ms
same,QTc,anesthetized dog; [40],289 ms
same,QT interval,anesthetized dog; [41],226 ms
same,QTc,anesthetized dog; [41],303 ms
same,QT interval,anesthetized dog; [42],220 ms
same,QTc,anesthetized dog; [42],294 ms
same,arrhythmia in electrocardiographic waveform,anesthetized dog; [43],no arrhythmia observed
same,prolongation of the QT interval,anesthetized dog; [43],did not cause prolongation of the QT interval
same,blood sugar versus solvent group,KK/Ay mice,lowered the blood sugar statistically significantly
same,Blood sugar,"KK/Ay mice; 10 mg/kg s.c. once a day, day 0 to day 13",336 ± 33 mg/dL
